Experimental data taken from the NIST ThermoML archive (doi:10.1016/j.jct.2019.01.021).

Test: molar heat capacity at constant pressure
Conditions: 101.33 kPa, Crystal 2, Small (less than 1 g) adiabatic calorimetry

N.NS(=O)(=O)O [ammonium sulfamate]
Conditions | molar heat capacity at constant pressure [J/K/mol]
5 K | 0.003159
8.91 K | 0.2228
9.15 K | 0.2561
9.62 K | 0.3293
9.86 K | 0.3608
10 K | 0.3908
10.36 K | 0.4664
10.69 K | 0.5138
11.01 K | 0.5995
11.34 K | 0.6668
11.67 K | 0.7466
12.01 K | 0.8356
12.34 K | 0.9262
12.68 K | 1.013
13.01 K | 1.113
13.35 K | 1.229
13.69 K | 1.347
14.03 K | 1.465
14.37 K | 1.586
14.72 K | 1.72
15 K | 1.837
15.07 K | 1.857
15.42 K | 2
15.76 K | 2.155
16.11 K | 2.332
16.47 K | 2.484
16.82 K | 2.64
17.17 K | 2.83
17.52 K | 3.021
17.88 K | 3.204
18.24 K | 3.395
18.59 K | 3.592
18.95 K | 3.806
19.31 K | 4.033
19.67 K | 4.25
20 K | 4.407
20.03 K | 4.465
20.61 K | 4.831
21.36 K | 5.306
22.1 K | 5.824
22.85 K | 6.364
23.61 K | 6.908
24.36 K | 7.492
25 K | 7.982
25.12 K | 8.117
25.88 K | 8.748
26.65 K | 9.316
27.42 K | 9.947
28.19 K | 10.61
28.96 K | 11.3
29.73 K | 11.97
30 K | 12.22
30.51 K | 12.68
31.29 K | 13.41
32.06 K | 14.11
32.85 K | 14.85
33.63 K | 15.59
34.41 K | 16.31
35 K | 16.88
35.2 K | 17.03
35.98 K | 17.81
36.77 K | 18.53
37.56 K | 19.25
38.35 K | 19.96
39.14 K | 20.7
39.93 K | 21.44
40 K | 21.53
40.72 K | 22.21
41.51 K | 22.95
42.31 K | 23.72
43.1 K | 24.46
43.9 K | 25.22
44.69 K | 26
45 K | 26.19
45.49 K | 26.74
46.29 K | 27.42
47.09 K | 28.16
47.88 K | 28.92
48.68 K | 29.58
49.48 K | 30.31
50 K | 30.85
50.28 K | 31.01
51.08 K | 31.75
51.88 K | 32.46
52.68 K | 33.24
53.48 K | 34.09
54.28 K | 34.9
55 K | 35.75
55.08 K | 35.75
55.89 K | 36.24
56.69 K | 36.94
57.49 K | 37.64
58.29 K | 38.37
59.1 K | 39.05
59.91 K | 39.76
60 K | 39.91
60.71 K | 40.47
61.52 K | 41.17
62.32 K | 42.03
63.12 K | 42.86
63.92 K | 43.55
64.73 K | 44.16
65 K | 44.07
65.54 K | 44.89
66.34 K | 45.53
67.15 K | 46.21
67.95 K | 46.89
68.76 K | 47.59
69.57 K | 48.3
70 K | 49.06
70.38 K | 49.01
71.3 K | 49.73
72.35 K | 50.64
73.39 K | 51.54
74.44 K | 52.48
75 K | 53.21
75.48 K | 53.43
76.53 K | 54.35
77.58 K | 55.24
78.62 K | 56.18
79.67 K | 57.12
79.91 K | 57.2
80 K | 57.37
80.72 K | 58.02
80.96 K | 58.19
81.77 K | 58.95
82.01 K | 59.07
82.82 K | 59.87
83.05 K | 59.96
83.87 K | 60.82
84.1 K | 60.91
84.92 K | 61.73
85.15 K | 61.78
86.2 K | 62.6
87.24 K | 63.53
88.29 K | 64.43
89.34 K | 65.22
90 K | 65.68
90.39 K | 66.05
91.44 K | 66.98
92.49 K | 67.83
93.54 K | 68.65
94.59 K | 69.45
95.65 K | 70.24
96.7 K | 71.12
97.75 K | 71.89
98.8 K | 72.7
99.86 K | 73.47
100 K | 73.33
100.91 K | 74.3
101.96 K | 75.09
103.01 K | 75.85
104.06 K | 76.59
105.11 K | 77.34
106.16 K | 78.13
107.21 K | 78.85
108.26 K | 79.53
109.31 K | 80.3
110 K | 80.4
110.37 K | 80.98
111.42 K | 81.71
112.47 K | 82.4
113.53 K | 83.05
114.58 K | 83.71
115.63 K | 84.43
116.68 K | 85.1
117.74 K | 85.75
118.79 K | 86.44
119.84 K | 87.02
120 K | 86.89
120.9 K | 87.68
121.95 K | 88.37
123 K | 88.95
124.05 K | 89.55
125.11 K | 90.12
126.16 K | 90.78
127.21 K | 91.36
128.27 K | 92.02
129.32 K | 92.56
130 K | 92.71
130.38 K | 93.15
131.43 K | 93.76
132.49 K | 94.31
133.54 K | 94.78
134.59 K | 95.43
135.65 K | 95.99
136.7 K | 96.5
137.76 K | 97.01
138.81 K | 97.53
139.87 K | 98.13
140 K | 98.03
140.92 K | 98.63
141.97 K | 99.21
143.03 K | 99.69
144.09 K | 100.16
145.14 K | 100.67
146.2 K | 101.12
147.25 K | 101.64
148.31 K | 102.18
149.36 K | 102.59
150 K | 102.85
150.42 K | 103.11
151.47 K | 103.62
152.53 K | 104.13
153.58 K | 104.47
154.64 K | 105.04
155.69 K | 105.57
156.75 K | 105.98
157.8 K | 106.39
158.86 K | 106.87
159.91 K | 107.31
160 K | 107.34
160.97 K | 107.74
162.02 K | 108.15
163.08 K | 108.69
164.13 K | 109.09
165.19 K | 109.46
166.24 K | 109.98
167.3 K | 110.42
168.35 K | 110.83
169.41 K | 111.19
170 K | 111.5
170.46 K | 111.64
171.51 K | 112.13
172.57 K | 112.44
173.62 K | 112.78
174.67 K | 113.21
175.73 K | 113.67
176.78 K | 114.15
177.84 K | 114.52
178.89 K | 114.89
179.94 K | 115.32
180 K | 115.4
181 K | 115.71
182.05 K | 116.14
183.1 K | 116.41
184.16 K | 116.84
185.21 K | 117.3
186.26 K | 117.56
